One experiment concerns A549. The experiment is described as follows: Proliferation assay in A549. Conditions: Homo sapiens, A549, Lung. The class given is cell-based. As for the experimental part:
(§1) The compounds were dissolved in 100% DMSO to make 10 mM stock solutions. HER2+BT474 breast carcinoma cells were cultured in DMEM/F12 media, supplemented with 10% FBS. Log-phase growing BT474 cells were seeded in 96 well plates at 1.5×10E4 per well. At this cell density, BT474 is expected to reach confluency about 70-80% in 3 days. Different dilutions of compounds or vehicle in 200 μl (concentration range 0.004-10 μM) were added to the cells and incubated for 72 hours. Upon completion of the incubation, media were gently removed by suction and 100 μl of ATPlite solution (Perkin Elmer) was added in each well. Viable cells were measured by detecting luminescence generated from reaction of ATPlite solution and ATP in the cells using a 96-well microplate luminescence reader. Relative luminescence light unit is correlated to the amount of ATP in viable cells. The assays were performed in duplicates. IC50 was calculated using XLfit. The IC50 shown in Table 4 below is the average IC50 from three independent experiments.
(§2) Additional proliferation assays were performed for certain exemplified compounds using the methods similar to the one described above in multiple cancer cell lines.

A further experiment has as its system NCI-H2228. In words: Proliferation assay in NCI-H2228. It counts as cell-based. Conditions: Homo sapiens, NCI-H2228, Lung (EML4-ALK+). As for the experimental part:
as §1, §2

For experiment [1], the system named is HER2+BT474 breast carcinoma cells. In words: Proliferation assay in BT474 (ATPlite). The class given is cell-based. Conditions: Homo sapiens, BT-474, 72 hours, average of three independent experiments. The protocol: as §1
For a further experiment, the system named is H460. The experiment is described as follows: Proliferation assay in H460. The class given is cell-based. The settings on record: Homo sapiens, NCI-H460, H460, Lung. The protocol:
as §1, §2

The subject of the next experiment is H1975. In words: Proliferation assay in H1975. Conditions: Homo sapiens, NCI-H1975, H1975, Lung (EGFR mut). The class given is cell-based. The protocol:
as §1, §2

The next experiment relates to HCC1569. In words: Proliferation assay in HCC1569. It counts as cell-based. The settings on record: Homo sapiens, HCC1569, Breast (Her2+; Her2i res). As for the experimental part:
as §1, §2

The test system of another experiment is H23. The experiment is described as follows: Proliferation assay in H23. The class given is cell-based. The settings on record: Homo sapiens, NCI-H23, H23, Lung. As for the experimental part: as §1, §2
A further experiment relates to SKOV-3. In words: Proliferation assay in SKOV-3. The class given is cell-based. Conditions: Homo sapiens, SK-OV-3, SKOV-3, Ovarian (Her2+). The protocol:
as §1, §2

Another experiment concerns N87. The experiment is described as follows: Proliferation assay in N87. It counts as cell-based. The settings on record: N87, Gastric (Her2+). As for the experimental part:
as §1, §2

The next experiment deals with A498. The experiment is described as follows: Proliferation assay in A498. It counts as cell-based. Conditions: Homo sapiens, A498, Renal (VHL mut). The protocol: as §1, §2
In a further experiment the test system is HCT116. The experiment is described as follows: Proliferation assay in HCT116. The settings on record: Homo sapiens, HCT-116, HCT116, Colon. It counts as cell-based. As for the experimental part: as §1, §2
In another experiment the test system is PC3. In words: Proliferation assay in PC3. The settings on record: Homo sapiens, PC-3, PC3, Prostate. It counts as cell-based. The protocol:
as §1, §2

The next experiment concerns HT29. The experiment is described as follows: Proliferation assay in HT29. The class given is cell-based. The settings on record: Homo sapiens, HT-29, HT29, Colon. As for the experimental part:
as §1, §2

Another experiment relates to RPM18226. In words: Proliferation assay in RPM18226. The class given is cell-based. Conditions: RPM18226, Multiple myeloma. As for the experimental part:
as §1, §2

For the next experiment, the system named is HCC827. The experiment is described as follows: Proliferation assay in HCC827. The class given is cell-based. The settings on record: Homo sapiens, HCC827, Lung (EGFR mut). The protocol: as §1, §2
A further experiment deals with T1, human HSP90α (Homo sapiens, UniProt P07900).
T1 construct: purchased Stressgen SPP-776F
In words: biochemical. The class given is binding.

Another experiment relates to Her-2 in SkBr3 cells. In words: Her-2 depletion in SkBr3 cells (pharmacodynamic marker of cellular efficacy). The class given is cell-based. The settings on record: Homo sapiens, SK-BR-3; SkBr3 cells treated with the inhibitor overnight; read-out: PD (μM), pharmacodynamic EC50, Her-2 depletion. The protocol:
FIG. 2. Cellular efficacy of pochoximes A1B5C1D1 (IC50). Depletion of Her-2 in SkBr3 cells were treated treated with the inhibitor for 18 h. […]

The next experiment relates to BT474 breast tumor cells. The settings on record: xenografts bearing BT474 breast tumor cells; earlier work of the inventors; cited from earlier work.
In experiment [2] the test system is HSP90 client protein in SKBR3 cell lines. Conditions: earlier work of the inventors; cited from earlier work.

The values that follow come from patent US20150374680A1, “POCHOXIME CONJUGATES USEFUL FOR THE TREATMENT OF HSP90 RELATED PATHOLOGIES” (UNIVERSITE DE STRASBOURG, priority 2010, published 2015).

Some results are limits rather than exact numbers.

One may read the IC50 as the concentration at which inhibition is half-maximal. Higher therefore signals lower potency. As usually defined, the EC50 is the concentration at which the effect is half-maximal.

For the compound `C[C@@H]1C/C=C/[C@@H](O)C/C=C/C(=N/OCC(=O)N2CCCCC2)Cc2cc(O)cc(O)c2C(=O)O1` [As-10a(6-S)-E], the IC50 in the experiment with A549 turned out to be 90 nM; in the experiment on NCI-H2228, 241 nM; in experiment [1] it was 0.058 µM; with H460 it was 45 nM; in the experiment on H1975 it was 73 nM; in the experiment with HCC1569 it was 377 nM. Further, the 50% inhibitory concentration (IC50) was 88 nM in the experiment with H23, 67 nM with SKOV-3, 73 nM with N87 and 99 nM in the experiment with A498.

Consider `C[C@@H]1C/C=C/[C@@H](O)C/C=C/C(=N\OCC(=O)N2CCCCC2)Cc2cc(O)cc(O)c2C(=O)O1` [As-10a(6-S)-Z], for which the IC50 in the experiment with A549 was 22 nM; with NCI-H2228, 77 nM; in [1] it was 0.026 µM; with H460, 15 nM; in the experiment on H1975, 35 nM; in the experiment with HCC1569, 100 nM. The IC50 in the experiment on H23 stood at 28 nM; in the experiment with SKOV-3, 25 nM; in the experiment on N87, 11 nM; in the experiment with A498 it was 24 nM.

As for `C[C@@H]1C/C=C/[C@@H](O)C/C=C/C(=N/OCC(=O)N2CCCCC2)Cc2c(Cl)c(O)cc(O)c2C(=O)O1` [As-10b(6-S)-E], the 50% inhibitory concentration (IC50) in the experiment on A549 stood at 126 nM; in the experiment with NCI-H2228 it was 281 nM; in experiment [1], 0.027 µM; with H1975 it was 33 nM; in the experiment with HCC1569, 187 nM; in the experiment with H23, 36 nM. Also, the results for the half-inhibitory concentration (IC50) in the experiment on SKOV-3, in the experiment with N87 and in the experiment on A498 were 45 nM, 13 nM and 37 nM, respectively.

`C[C@@H]1C/C=C/[C@@H](O)C/C=C/C(=N\OCC(=O)N2CCCCC2)Cc2c(Cl)c(O)cc(O)c2C(=O)O1` [As-10b(6-S)-Z] gave a concentration for half-maximal inhibition (IC50) in experiment [1] of 0.824 µM.

Turning to `C[C@@H]1C/C=C/[C@@H](N)C/C=C/C(=N/OCC(=O)N2CCCCC2)Cc2cc(O)cc(O)c2C(=O)O1` [As-13(6S)-E], the IC50 with HCT116 stood at 76 nM; in the experiment on NCI-H2228, 87 nM; with H460 it was 33 nM; in the experiment with PC3 it was 44 nM; in the experiment on H1975 it was 37 nM; with HT29 it was 33 nM. In addition, the IC50 was found to be 140 nM in the experiment with HCC1569; 46 nM in the experiment with RPM18226; 41 nM in the experiment with H23; 33 nM with SKOV-3; 79 nM with HCC827; 7 nM in the experiment on N87. This compound also came in with an IC50 in the experiment with A498 of 180 nM.

Turning to `C[C@@H]1C/C=C/[C@@H](N)C/C=C/C(=N\OCC(=O)N2CCCCC2)Cc2cc(O)cc(O)c2C(=O)O1` [As-13(6S)-Z], the half-maximal inhibitory concentration (IC50) amounted to 101 nM with HCT116; 139 nM with NCI-H2228; 82 nM with PC3; 51 nM in the experiment with H1975; 92 nM in the experiment with HT29; 175 nM in the experiment on HCC1569. In addition, the 50% inhibitory concentration (IC50) is 72 nM in the experiment with RPM18226, 105 nM in the experiment with HCC827, 12 nM with N87 and 166 nM with A498.

Compound `C[C@@H]1C/C=C/[C@@H](NC(=O)CS[C@@H]2OC(CO)[C@@H](O)C(O)C2O)C/C=C/C(=N/OCC(=O)N2CCCCC2)Cc2cc(O)cc(O)c2C(=O)O1` (stereo partly shown) [Compound 5E] registered an IC50 in experiment [1] of 7.84 µM. This counts as single-digit micromolar.

As to `C[C@@H]1C/C=C/[C@@H](NC(=O)CS[C@@H]2OC(CO)[C@@H](O)C(O)C2O)C/C=C/C(=N\OCC(=O)N2CCCCC2)Cc2cc(O)cc(O)c2C(=O)O1` (stereo partly shown) [Compound 5Z], the IC50 in experiment [1] is greater than 10 µM.

`C[C@@H]1C/C=C/[C@H](NC(=O)CS[C@@H]2OC(CO)[C@@H](O)C(O)C2O)C/C=C/C(=N/OCC(=O)N2CCCCC2)Cc2cc(O)cc(O)c2C(=O)O1` (stereo partly shown) [Compound 11E] yielded an IC50 in [1] of 4.76 µM.

Consider `C[C@@H]1C/C=C/[C@H](NC(=O)CS[C@@H]2OC(CO)[C@@H](O)C(O)C2O)C/C=C/C(=N\OCC(=O)N2CCCCC2)Cc2cc(O)cc(O)c2C(=O)O1` (stereo partly shown) [Compound 11Z], for which the 50% inhibitory concentration (IC50) in [1] is greater than 10 µM.

The compound `C[C@@H]1C/C=C/[C@@H](N)C/C=C/C(=N/OCC(=O)N2CCCCC2)Cc2cc(O)cc(O)c2C(=O)O1` [Compound 12E] gave an IC50 in experiment [1] of 0.03 µM.

The compound `C[C@@H]1C/C=C/[C@@H](N)C/C=C/C(=N\OCC(=O)N2CCCCC2)Cc2cc(O)cc(O)c2C(=O)O1` [Compound 12Z] displayed an IC50 in experiment [1] of 0.038 µM.

For `C[C@@H]1C/C=C/[C@H](N)C/C=C/C(=NOCC(=O)N2CCCCC2)Cc2cc(O)cc(O)c2C(=O)O1` [Compound 13], half-maximal inhibition in [1] (IC50) required 0.097 µM.

The compound `CC(=O)N[C@H]1/C=C/C[C@@H](C)OC(=O)c2c(O)cc(O)cc2CC(=N\OCC(=O)N2CCCCC2)/C=C/C1` [Compound 14E] gave a 50% inhibitory concentration (IC50) in [1] of 0.223 µM. Against the preceding compound, the IC50 is about 2.3-fold higher.

In [1], `CC(=O)N[C@H]1/C=C/C[C@@H](C)OC(=O)c2c(O)cc(O)cc2CC(=N/OCC(=O)N2CCCCC2)/C=C/C1` [Compound 14Z] showed an IC50 of 0.27 µM. The IC50 values of the last two compounds are within 1.5-fold of each other.

Regarding `CC1C=CCCOC(=O)c2c(O)cc(O)c(Cl)c2CC(=NOCC(=O)N2CCCCC2)C=CC1` (stereo not shown) [Compound A2B4C4D1], the EC50 was 170 nM on human HSP90α and no more than 5 µM in the experiment with Her-2 in SkBr3 cells.

`CC1C=CCCCOC(=O)c2c(O)cc(O)c(Cl)c2CC(=NOCC(=O)N2CCCCC2)C=CC1` (stereo not shown) [Compound A2B4C5D1]: the EC50 was 1720 nM at human HSP90α and greater than 10 µM with Her-2 in SkBr3 cells.

`O=C1OCC/C=C/CC/C=C/C(=N/OCC(=O)N2CCCCC2)Cc2c(Cl)c(O)cc(O)c21` [pochoxime A]: in the experiment on BT474 breast tumor cells, the “Effect on tumor in xenografts” value is recorded as “tumor regression”. The “Concentration inducing client protein degradation” value in experiment [2] is given as “low nM”.

Turning to pochoxime B, the “Concentration inducing client protein degradation” value in experiment [2] is on record as “low nM”.

For the compound pochoxime C, in experiment [2], the “Concentration inducing client protein degradation” value was “low nM”.
